According to paper PMC11859928, “Design, Synthesis, and Antiproliferative Activity of Novel Indole/1,2,4-Triazole Hybrids as Tubulin Polymerization Inhibitors” (Pharmaceuticals, 2025):

Tests used:
Type in all cases: cell-based, human
[1] = system: Renal cancer subpanel; test: NCI five-dose assay, subpanel mean
[2] = system: CCRF-CEM; test: NCI five-dose assay; settings: Homo sapiens, five dose levels
[3] = system: CNS cancer subpanel; test: NCI five-dose assay, subpanel mean
[4] = system: SW-620; test: NCI five-dose assay; settings: SW-620, five dose levels
[5] = system: RXF393; test: NCI five-dose assay; settings: RXF393, five dose levels
[6] = system: DU-145; test: NCI five-dose assay; settings: DU-145, five dose levels
[7] = system: SF-539; test: NCI five-dose assay; settings: SF-539, five dose levels
[8] = system: OVCAR-3; test: NCI five-dose assay; settings: OVCAR-3, five dose levels
[9] = system: MALME-3M; test: NCI five-dose assay; settings: five dose levels
[10] = system: ACHN; test: NCI five-dose assay; settings: five dose levels
[11] = system: HL-60(TB); test: NCI five-dose assay; settings: five dose levels
[12] = system: OVCAR-4; test: NCI five-dose assay; settings: OVCAR-4, five dose levels
[13] = system: SN12C; test: NCI five-dose assay; settings: five dose levels
[14] = system: LOX IMVI; test: NCI five-dose assay; settings: five dose levels
[15] = system: MOLT-4; test: NCI five-dose assay; settings: MOLT-4, five dose levels
[16] = system: OVCAR-5; test: NCI five-dose assay; settings: OVCAR-5, five dose levels
[17] = system: SK-MEL-2; test: NCI five-dose assay; settings: Homo sapiens, SK-MEL-2, five dose levels
[18] = system: CAKI-1; test: NCI five-dose assay; settings: CAKI-1, five dose levels
[19] = system: NCI/ADR-RES; test: NCI five-dose assay; settings: five dose levels
[20] = system: HOP-92; test: NCI five-dose assay; settings: HOP-92, five dose levels
[21] = system: K-562; test: NCI five-dose assay; settings: Homo sapiens, K562, K-562, five dose levels
[22] = system: UACC-257; test: NCI five-dose assay; settings: UACC-257, five dose levels
[23] = system: RPMI-8226; test: NCI five-dose assay; settings: RPMI-8226, five dose levels
[24] = system: UACC-62; test: NCI five-dose assay; settings: UACC-62, five dose levels
[25] = system: TK-10; test: NCI five-dose assay; settings: TK-10, five dose levels
[26] = system: UO-31; test: NCI five-dose assay; settings: UO-31, five dose levels
[27] = system: SR; test: NCI five-dose assay; settings: five dose levels
[28] = system: MDA-MB-468; test: NCI five-dose assay; settings: MDA-MB-468, five dose levels
[29] = read-out: GI50 Conc. per Cell Lines
[30] = read-out: LC50 (the source's name)
[31] = Homo sapiens, read-out: GI50 Conc. per Cell Lines
[32] = Homo sapiens, read-out: LC50 (the source's name)

## O/N=C(\CSc1nnc(-c2c[nH]c3ccccc23)n1-c1ccccc1)c1ccc(Cl)cc1 [Compound 7j, (Z)-2-((5-(1H-Indol-3-yl)-4-phenyl-4H-1,2,4-triazol-3-yl)thio)-1-(4-chlorophenyl) Ethanone Oxime]
[1]; Homo sapiens, Renal cancer, average sensitivity of all cell lines of the subpanel, read-out: GI50 Subpanel MID b
  GI50: 5.23 µM
[1]; Renal cancer subpanel
  GI50 Selectivity Ratio (MID a/MID b): 0.69
[2]; [29]
  GI50: 2850 nM
[2]; [30]
  CC50: > 100 µM
[3]; CNS cancer subpanel
  GI50 Selectivity Ratio (MID a/MID b): 0.763
[3]; Homo sapiens, CNS cancer, average sensitivity of all cell lines of the subpanel, read-out: GI50 Subpanel MID b
  GI50: 4.78 µM
[4]; [31]
  GI50: 3.08 µM
[4]; [32]
  CC50: 83.2 µM
[4]
  TGI Conc. per Cell Lines: 16.1 µM
[5]; Homo sapiens, RXF 393
  LC50 (concentration killing 50% of cells): 46.3 µM
[5]; Homo sapiens, RXF 393, read-out: GI50 Conc. per Cell Lines
  GI50: 2220 nM
[5]
  TGI Conc. per Cell Lines: 6.29 µM
[6]
  TGI Conc. per Cell Lines: 6.32 µM
[6]; [31]
  GI50: 2590 nM
[6]; [32]
  CC50: > 100 µM
[7]; [31]
  GI50: 10.2 µM
[7]; [32]
  CC50: 51.2 µM
[7]
  TGI Conc. per Cell Lines: 29.5 µM
[8]; Homo sapiens
  LC50: > 100 µM
[8]; [31]
  GI50: 4.58 µM
[8]
  TGI Conc. per Cell Lines: 32.4 µM
[9]; [31]
  GI50: 4.99 µM
[9]; [32]
  CC50: > 100 µM
[9]
  TGI Conc. per Cell Lines: 27.5 µM
[10]; Homo sapiens
  LC50: > 100 µM
[10]; [31]
  GI50: 3.69 µM
[10]
  TGI Conc. per Cell Lines: 14.5 µM
[11]; [31]
  GI50: 2170 nM
[11]; [32]
  CC50: > 100 µM
[11]
  TGI Conc. per Cell Lines: 6.34 µM
[12]; Homo sapiens
  LC50: > 100 µM
[12]; [31]
  GI50: 1960 nM
[12]
  TGI Conc. per Cell Lines: 4.32 µM
[13]; [31]
  GI50: 3.79 µM
[13]; [32]
  CC50: > 100 µM
[13]
  TGI Conc. per Cell Lines: 16.3 µM
[14]; [31]
  GI50: 1720 nM
[14]; [32]
  CC50: 17.4 µM
[14]
  TGI Conc. per Cell Lines: 3.12 µM
[15]; [31]
  GI50: 2160 nM
[15]; [32]
  CC50: > 100 µM
[15]
  TGI Conc. per Cell Lines: 5.69 µM
[16]; Homo sapiens
  LC50: > 100 µM
[16]; [31]
  GI50: 3.37 µM
[16]
  TGI Conc. per Cell Lines: 11.4 µM
[17]; [29]
  GI50: 3.64 µM
[17]; [30]
  CC50: > 100 µM
[18]
  TGI Conc. per Cell Lines: 12.4 µM
[18]; Homo sapiens
  LC50: > 100 µM
[18]; [31]
  GI50: 2930 nM
[19]; Homo sapiens
  LC50: > 100 µM
[19]; [31]
  GI50: 2950 nM
[19]
  TGI Conc. per Cell Lines: 9.50 µM
[20]
  TGI Conc. per Cell Lines: 37.6 µM
[20]; [31]
  GI50: 3.84 µM
[20]; [32]
  CC50: > 100 µM
[21]; [29]
  GI50: 2550 nM
[21]; [30]
  CC50: > 100 µM
[22]; [31]
  GI50: 4.67 µM
[22]; [32]
  CC50: > 100 µM
[22]
  TGI Conc. per Cell Lines: 87.8 µM
[23]; [31]
  GI50: 2380 nM
[23]; [32]
  CC50: > 100 µM
[23]
  TGI Conc. per Cell Lines: 7.29 µM
[24]; [31]
  GI50: 2620 nM
[24]; [32]
  CC50: > 100 µM
[24]
  TGI Conc. per Cell Lines: 10.1 µM
[25]; [31]
  GI50: 3.7 µM
[25]; [32]
  CC50: > 100 µM
[25]
  TGI Conc. per Cell Lines: 17.7 µM
[26]; [31]
  GI50: 2880 nM
[26]; [32]
  CC50: 71.1 µM
[26]
  TGI Conc. per Cell Lines: 15.7 µM
[27]; [31]
  GI50: 4.74 µM
[27]; [32]
  CC50: > 100 µM
[27]
  TGI Conc. per Cell Lines: >100 µM
[28]; Homo sapiens
  LC50: 46 µM
[28]; [31]
  GI50: 1720 nM
[28]
  TGI Conc. per Cell Lines: 3.47 µM
